Results taken from US8486892B2, “Blood coagulation factor inhibitors” (Novo Nordisk Health Care AG, priority 2008, dated 2013).

Molecular target: T1, 40K-PEG-rFVIIa (Homo sapiens, UniProt P08709)
T1 construct: Typically, Factor VII is cleaved between residues 152 and 153 to yield Factor VIIa; 40K-PEG (about 40 kDa PEG on a glycan)
T1 sequence (P08709 213-466 limits assumed): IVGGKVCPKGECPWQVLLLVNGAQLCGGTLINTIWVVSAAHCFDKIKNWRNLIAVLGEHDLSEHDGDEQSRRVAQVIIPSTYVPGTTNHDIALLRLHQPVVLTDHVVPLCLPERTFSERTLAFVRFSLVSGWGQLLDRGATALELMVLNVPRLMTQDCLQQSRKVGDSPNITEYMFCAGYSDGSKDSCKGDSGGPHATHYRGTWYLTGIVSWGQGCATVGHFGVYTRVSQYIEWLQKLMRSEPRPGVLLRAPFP
T1 sequence (P08709 61-212 limits assumed): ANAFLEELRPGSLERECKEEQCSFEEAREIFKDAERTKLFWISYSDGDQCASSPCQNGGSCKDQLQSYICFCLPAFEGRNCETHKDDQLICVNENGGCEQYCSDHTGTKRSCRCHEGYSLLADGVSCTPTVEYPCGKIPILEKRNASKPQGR
Test: Stability experiment on 40K-PEG-rFVIIa in solution, clot activity by One-stage Coagulation Assay (Assay 4)
Type: biochemical
Details: 20 mg/ml 40K-PEG-rFVIIa, pH 7.0, 3 months at 25° C.
Procedure: Factor VII polypeptides may also be assayed for specific activities (“clot activity”) by using a one-stage coagulation assay (Assay 4). For this purpose, the sample to be tested is diluted in 50 mM PIPES-buffer (pH 7.2), 1% BSA and 40 μl is incubated with 40 μl of Factor VII deficient plasma and 80 μl of human recombinant tissue factor containing 10 mM Ca^2+ and synthetic phospholipids. Coagulation times (clotting times) are measured and compared to a standard curve using a reference standard in a parallel line assay.
In order to investigate the stabilizing effect of the compounds described by the current invention on Factor VIIa molecules in solution, a stability experiment was performed on 40K-PEG-rFVIIa.
The investigated formulations contained 0, 1, 10 or 30 mM n-propyloxycarbonyl-Phe(4-amidino)-Glu-Asn-Cha-(OEG)5-NH2, and all contained 20 mg/ml 40K-PEG-rFVIIa, 20 mM histidine, pH 7.0, 6% sucrose, 20 mM CaCl2, 0.5 mg/ml methionine. The samples were incubated 3 months at 25° C., and analysed for clot activity using the above-described “One-stage Coagulation Assay” (Assay 4) (see section “General Methods”).

For “Propyloxycarbonyl-(4-amidino-Phe)-Glu-Asn-Cha-[HN—(CH2—CH2—O)2—(CH2)—C(═O)]5—NH2 [Example 1]”, the “Clot activity relative to the initial value” (1 mM inhibitor) was 18%, the “Clot activity relative to the initial value” (10 mM inhibitor) was 86% and the “Clot activity relative to the initial value” (30 mM inhibitor) was 89%.
